This assay deals with T1, human GRP receptor (BB2) (Homo sapiens, UniProt P30550).
T1 construct: expressed in transfected cells
In words: BB2 binding assay ([125I][Tyr4]bombesin, CHO-K1 cell membranes). The procedure:
In the following experiments, measurement of BB1 and BB2 binding was as follows. […] The final pellet was resuspended in assay buffer to a final cell concentration of 1.5 × 10^5/mL. […] Nonspecific binding was defined by 1µM bombesin. […] Radioactivity bound was determined using a gamma counter.
All competition data was analysed using nonlinear regression utilizing iterative curve-plotting procedures in Prism® (GraphPad Software Inc., San Diego, USA).

Setting [1] is: Table 5, N-terminal urethane derivatives.
[2] abbreviates: Table 7, N-terminal sulfonamide derivatives.

Some results are limits rather than exact numbers.

Consider 28 compounds from patent publication EP1333824B1, “TREATMENT OF SEXUAL DYSFUNCTION WITH BOMBESIN RECEPTOR ANTAGONISTS” (Warner-Lambert Company LLC, priority 2000, dated 2002).

T1 sequence (P30550 whole entry): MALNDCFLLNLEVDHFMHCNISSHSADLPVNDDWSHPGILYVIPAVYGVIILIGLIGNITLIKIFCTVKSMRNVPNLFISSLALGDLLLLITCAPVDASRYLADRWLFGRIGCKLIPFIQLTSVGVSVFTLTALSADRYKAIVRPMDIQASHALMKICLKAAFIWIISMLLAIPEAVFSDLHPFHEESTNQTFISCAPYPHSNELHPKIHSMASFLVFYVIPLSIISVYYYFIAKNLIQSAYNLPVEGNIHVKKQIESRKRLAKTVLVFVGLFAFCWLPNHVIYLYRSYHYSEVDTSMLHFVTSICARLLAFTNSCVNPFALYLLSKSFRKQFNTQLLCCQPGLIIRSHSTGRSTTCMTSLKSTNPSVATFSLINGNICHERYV

A word on the IC50: it is the concentration at which inhibition is half-maximal. Turning to `CN(C)c1ccccc1C(=O)N[C@@](C)(Cc1c[nH]c2ccccc12)C(=O)NCC1(c2ccccn2)CCCCC1` [Example 48, C-Dimethylamino-N-{(S)-2-(1H-indol-3-yl)-1-methyl-1-[(1-pyridin-2-yl-cyclohexyl-methyl)-carbamoyl]-ethyl}-benzamide], the IC50 (Table 3, N-acyl derivatives) is over 10 µM. `C[C@@](Cc1c[nH]c2ccccc12)(NC(=O)c1ccccn1)C(=O)NCC1(c2ccccn2)CCCCC1` [Example 57, Pyridine-2-carboxylic acid {(S)-2-(1H-indol-3-yl)-1-methyl-1-[(1-pyridin-2-yl-cyclohexylmethyl)-carbamoyl]-ethyl}-amide]: the IC50 (Table 3, N-acyl derivatives) was over 10 µM. The same measure, in the same setting: as for `C[C@@](Cc1c[nH]c2ccccc12)(NC(=O)c1ccoc1)C(=O)NCC1(c2ccccn2)CCCCC1` [Example 59, Furan-3-carboxylic acid {(S)-2-(1H-indol-3-yl)-1-methyl-1-[(1-pyridin-2-yl-cyclohexylmethyl)-carbamoyl]-ethyl}-amide], the figure is over 10 µM.

In turn, `C[C@@](Cc1c[nH]c2ccccc12)(NC(=O)c1ccco1)C(=O)NCC1(c2ccccn2)CCCCC1` [Example 60, Furan-2-carboxylic acid {(S)-2-(1H-indol-3-yl)-1-methyl-1-[(1-pyridin-2-yl-cyclohexylmethyl)-carbamoyl]-ethyl}-amide] returned an IC50 (Table 3, N-acyl derivatives) of over 10 µM.

In the case of `Cc1cc(C(=O)N[C@@](C)(Cc2c[nH]c3ccccc23)C(=O)NCC2(c3ccccn3)CCCCC2)no1` [Example 62, 5-Methyl-isoxazole-3-carboxylic acid {(S)-2-(1H-indol-3-yl)-1-methyl-1-[(1-pyridin-2-yl-cyclohexylmethyl)-carbamoyl]-ethyl}-amide], the IC50 (Table 3, N-acyl derivatives) was over 10 µM. As for `C[C@@](Cc1c[nH]c2ccccc12)(NC(=O)c1cnc2ccccc2n1)C(=O)NCC1(c2ccccn2)CCCCC1` [Example 78, Quinoxaline-2-carboxylic acid {(S)-2-(1H-indol-3-yl)-1-methyl-1-[(1-pyridin-2-yl-cyclohexylmethyl)-carbamoyl]-ethyl}-amide], the IC50 (Table 3, N-acyl derivatives) was over 10 µM.

In turn, `C[C@@](Cc1c[nH]c2ccccc12)(NC(=O)OCc1ccc(Cl)cc1Cl)C(=O)NCC1(c2ccccn2)CCCCC1` [Example 104, {(S)-2-(1H-Indol-3-yl)-1-methyl-1-[(1-pyridin-2-yl-cyclohexylmethyl)-carbamoyl]-ethyl}-carbamic acid 2,4-dichloro-benzyl ester] displayed an IC50 under setting [1] of over 10 µM. Still for that read-out and setting: the result for `C[C@@](Cc1c[nH]c2ccccc12)(NC(=O)OCc1ccc2ncccc2c1)C(=O)NCC1(c2ccccn2)CCCCC1` [Example 110, {(S)-2-(1H-Indol-3-yl)-1-methyl-1-[(1-pyridin-2-yl-cyclohexylmethyl)-carbamoyl]-ethyl}-carbamic acid quinolin-6-ylmethyl ester] reads over 10 µM. Consider `Cc1ccc(S(=O)(=O)N[C@@](C)(Cc2c[nH]c3ccccc23)C(=O)NCC2(c3ccccn3)CCCCC2)cc1` [Example 112, (S)-3-(1H-Indol-3-yl)-2-methyl-N-(1-pyridin-2-yl-cyclohexylmethyl)-2-(toluene-4-sulfonylamino)-propionamide], for which the IC50 under setting [2] is over 10 µM. As to `C[C@@](Cc1c[nH]c2ccccc12)(NS(=O)(=O)c1ccccc1F)C(=O)NCC1(c2ccccn2)CCCCC1` [Example 114, (S)-2-(2-Fluorobenzenesulfonylamino)-3-(1H-indol-3-yl)-2-methyl-N-(1-pyridin-2-yl-cyclohexylmethyl)-propionamide], under setting [2], the IC50 is over 10 µM. Same read-out and setting: as for `CN(C)c1cccc2c(S(=O)(=O)N[C@@](C)(Cc3c[nH]c4ccccc34)C(=O)NCC3(c4ccccn4)CCCCC3)cccc12` [Example 117, (S)-2-(5-Dimethylamino-naphthalene-1-sulfonylamino)-3-(1H-indol-3-yl)-2-methyl-N-(1-pyridin-2-yl-cyclohexylmethyl)-propionamide], the figure is over 10 µM; as for `C[C@@](Cc1c[nH]c2ccccc12)(NS(=O)(=O)c1ccc2ccccc2c1)C(=O)NCC1(c2ccccn2)CCCCC1` [Example 118, (S)-3-(1H-Indol-3-yl)-2-methyl-2-(naphthalene-2-sulfonylamino)-N-(1-pyridin-2-yl-cyclohexylmethyl)-propionamide], over 10 µM.

On to `C[C@@](Cc1c[nH]c2ccccc12)(NS(=O)(=O)c1cccs1)C(=O)NCC1(c2ccccn2)CCCCC1` [Example 119, (S)-3-(1H-Indol-3-yl)-2-methyl-N-(1-pyridin-2-yl-cyclohexylmethyl)-2-(thiophene-2-sulfonylamino)-propionamide], for which the “BB2 IC50” value under setting [2] is recorded as “Ia”. In turn, `C[C@@](Cc1c[nH]c2ccccc12)(NS(=O)(=O)c1ccc([N+](=O)[O-])cc1)C(=O)NCC1(c2ccccn2)CCCCC1` [Example 123, (S)-3-(1H-Indol-3-yl)-2-methyl-2-(4-nitro-benzenesulfonylamino)-N-(1-pyridin-2-yl-cyclohexylmethyl)-propionamide] gave an IC50 under setting [2] of over 10 µM. On the same count and under the same terms, as for `C[C@@](Cc1c[nH]c2ccccc12)(NS(=O)(=O)c1ccc(Cl)c(Cl)c1)C(=O)NCC1(c2ccccn2)CCCCC1` [Example 125, (S)-2-(3,4-Dichloro-benzenesulfonylamino)-3-(1H-indol-3-yl)-2-methyl-N-(1-pyridin-2-yl-cyclohexylmethyl)-propionamide], the figure is over 10 µM; as for `C[C@@](Cc1c[nH]c2ccccc12)(NS(=O)(=O)c1ccc(C(F)(F)F)cc1)C(=O)NCC1(c2ccccn2)CCCCC1` [Example 127, (S)-3-(1H-Indol-3-yl)-2-methyl-N-(1-pyridin-2-yl-cyclohexylmethyl)-2-(4-trifluoromethyl-benzenesulfonylamino)-propionamide], over 10 µM; as for `C[C@@](Cc1c[nH]c2ccccc12)(NS(=O)(=O)c1ccc(Cl)s1)C(=O)NCC1(c2ccccn2)CCCCC1` [Example 128, (S)-2-(5-Chloro-thiophene-2-sulfonylamino)-3-(1H-indol-3-yl)-2-methyl-N-(1-pyridin-2-yl-cyclohexylmethyl)-propionamide], over 10 µM. On the same count and under the same terms, as for `COc1ccc(S(=O)(=O)N[C@@](C)(Cc2c[nH]c3ccccc23)C(=O)NCC2(c3ccccn3)CCCCC2)cc1OC` [Example 132, (S)-2-(3,4-Dimethoxy-benzenesulfonylamino)-3-(1H-indol-3-yl)-2-methyl-N-(1-pyridin-2-yl-cyclohexylmethyl)-propionamide], the figure is over 10 µM; as for `C[C@@](Cc1c[nH]c2ccccc12)(NS(=O)(=O)c1ccc(C#N)cc1)C(=O)NCC1(c2ccccn2)CCCCC1` [Example 133, (S)-2-(4-Cyano-benzenesulfonylamino)-3-(1H-indol-3-yl)-2-methyl-N-(1-pyridin-2-yl-cyclohexylmethyl)-propionamide], over 10 µM; as for `C[C@@](Cc1c[nH]c2ccccc12)(NS(=O)(=O)c1ccccc1C#N)C(=O)NCC1(c2ccccn2)CCCCC1` [Example 134, (S)-2-(2-Cyano-benzenesulfonylamino)-3-(1H-indol-3-yl)-2-methyl-N-(1-pyridin-2-yl-cyclohexylmethyl)-propionamide], over 10 µM.

Regarding `Cc1nn(C)c(Cl)c1S(=O)(=O)N[C@@](C)(Cc1c[nH]c2ccccc12)C(=O)NCC1(c2ccccn2)CCCCC1` [Example 135, (S)-2-(5-Chloro-1,3-dimethyl-1H-pyrazole-4-sulfonylamino)-3-(1H-indol-3-yl)-2-methyl-N-(1-pyridin-2-yl-cyclohexylmethyl)-propionamide], under setting [2], the IC50 was over 10 µM.

The compound `Cc1noc(C)c1S(=O)(=O)N[C@@](C)(Cc1c[nH]c2ccccc12)C(=O)NCC1(c2ccccn2)CCCCC1` [Example 136, (S)-2-(3,5-Dimethyl-isoxazole-4-sulfonylamino)-3-(1H-indol-3-yl)-2-methyl-N-(1-pyridin-2-yl-cyclohexylmethyl)-propionamide] displayed a half-maximal inhibitory concentration (IC50) under setting [2] of over 10 µM. `C[C@@](Cc1c[nH]c2ccccc12)(NS(=O)(=O)c1cccc2nsnc12)C(=O)NCC1(c2ccccn2)CCCCC1` [Example 137, (S)-2-(Benzo[1,2,5]thiadiazole-4-sulfonylamino)-3-(1H-indol-3-yl)-2-methyl-N-(1-pyridin-2-yl-cyclohexylmethyl)-propionamide]: the IC50 under setting [2] was over 10 µM. In turn, `Cn1cnc(S(=O)(=O)N[C@@](C)(Cc2c[nH]c3ccccc23)C(=O)NCC2(c3ccccn3)CCCCC2)c1` [Example 138, (S)-3-(1H-Indol-3-yl)-2-methyl-2-(1-methyl-1H-imidazole-4-sulfonylamino)-N-(1-pyridin-2-yl-cyclohexylmethyl)-propionamide] gave an IC50 under setting [2] of over 10 µM. On the same count and under the same terms, the result for `C[C@@](Cc1c[nH]c2ccccc12)(NS(=O)(=O)c1cccc2nonc12)C(=O)NCC1(c2ccccn2)CCCCC1` [Example 139, (S)-2-(Benzo[1,2,5]oxadiazole-4-sulfonylamino)-3-(1H-indol-3-yl)-2-methyl-N-(1-pyridin-2-yl-cyclohexylmethyl)-propionamide] reads over 10 µM; that for `COC(=O)c1sccc1S(=O)(=O)N[C@@](C)(Cc1c[nH]c2ccccc12)C(=O)NCC1(c2ccccn2)CCCCC1` [Example 140, 3-{(S)-2-(1H-Indol-3-yl)-1-methyl-1-[(1-pyridin-2-yl-cyclohexylmethyl)-carbamoyl]-ethylsulfamoyl}-thiophene-2-carboxylic acid methyl ester], over 10 µM; that for `C[C@@](Cc1c[nH]c2ccccc12)(NS(=O)(=O)c1ccc(-c2ccon2)s1)C(=O)NCC1(c2ccccn2)CCCCC1` [Example 141, (S)-3-(1H-Indol-3-yl)-2-(5-isoxazol-3-yl-thiophene-2-sulfonylamino)-2-methyl-N-(1-pyridin-2-yl-cyclohexylmethyl)-propionamide], over 10 µM. With `C[C@@](Cc1c[nH]c2ccccc12)(NS(=O)(=O)Cc1ccccc1[N+](=O)[O-])C(=O)NCC1(c2ccccn2)CCCCC1` [Example 142, (S)-3-(1H-Indol-3-yl)-2-methyl-2-(2-nitro-phenylmethanesulfonylamino)-N-(1-pyridin-2-yl-cyclohexylmethyl)-propionamide], the IC50 under setting [2] is over 10 µM.
